Reference: PMC6694155, “PTPσ inhibitors promote hematopoietic stem cell regeneration” (Nature Communications, 2019)
Values joined by “and” are separate entries in the source; they are usually repeats but may differ in a detail not shown here. Equal entries are not always repeated.

Legend:
BM KSL cells = assay: Annexin V/7AAD apoptosis assay of BM KSL cells from mice 24 h post 500 cGy TBI; assay type: in vivo, mouse
Description: Eight- to ten-week-old female C57BL/6 mice were irradiated with 500 cGy TBI followed by subcutaneous injections of 5 mg/kg DJ001 or vehicle, or 5 mg/kg DJ001 plus 40 mg/kg EHT1864. Twenty four hours after irradiation, mice were killed to collect BM cells for Annexin V apoptosis analysis. BM cells were stained with APC-Cy7-conjugated anti-mouse Sca1 (BD Biosciences, #560654, 1:100), PE-conjugated anti-ckit (BD Biosciences, #553355, 1:100), and V450 lineage cocktail (BD Biosciences, #561301, 1:10) antibodies for 30 min at 4 °C. Cells were then resuspended in 1× Annexin V binding buffer and then stained with FITC-conjugated anti-Annexin V antibody (BD Biosciences, #556547,1:50) and 7AAD antibody (BD Biosciences, #559925, 1:40)[68]. For in vitro human BM cell apoptosis assays, isolated human BM CD34^+ cells were plated into 96-well plates and then irradiated with 300 cGy. Immediately after irradiation, cells were treated with 5 μg/mL DJ001 or vehicle for 24 h and then collected for Annexin V cell apoptosis analysis. For cell cycle analysis, BM KSL cells were irradiated at 300 cGy and then treated with 1 μg/mL DJ001 or vehicle for 36 h. Subsequently, cells were resuspended in 200 μL of PBS, fixed with 1 mL of ice-cold fixation solution (0.25% Saponin, 2.5% PFA, 2% fetal calf serum (FCS) in PBS), and incubated for 30 min on ice. Cells were washed in Saponin buffer (0.25% Saponin, 2% FCS in PBS) and resuspended in 200 μL of Saponin buffer containing 20 μL of FITC-conjugated anti-Ki67 antibody (BD Biosciences, #556026, 1:10) and 1 μL of RNase (Qiagen, #19101, 100 mg/mL). After 30 min of incubation, cells were washed in Saponin buffer and resuspended for flow analysis in 200 μL of Saponin buffer containing 5 μL 7AAD (BD Biosciences, #559925, 1:40).

[1] = target: T1, PTPMEG2 (Protein Tyrosine Phosphatase Non-Receptor Type 9) (Homo sapiens, UniProt P43378); assay: PhosphataseProfiler screen: PTPMEG2; assay type: biochemical; settings: replicates
T1 construct: purchased Eurofins Pharma Discovery Services UK
Description: Compound DJ001 was evaluated in a PhosphataseProfiler™ screen at 10 μM and 1 μM (2.7 μg/mL and 0.27 μg/mL) concentrations at Eurofins Pharma Discovery Services UK (Study number UK022-0004033) against a panel of 21 Phosphatases. In each experiment, the respective reference antagonist/agonist was tested directly with DJ001 and the data were compared with historical values determined at Eurofins. DJ001 compound inhibition was calculated as percentage inhibition of the enzymatic activity compared with control.

BM CD34−KSL HSCs = assay: 7 day culture of non-irradiated BM CD34−KSL cells in TSF media; assay type: cell-based, mouse; settings: for Supplementary Figure 3a (center panel): 7 day culture of BM CD34−KSL cells / Supplementary Figure 3a (left panel): 7 day culture of BM CD34−KSL cells / Supplementary Figure 3a (right panel): 7 day culture of BM CD34−KSL cells: replicates
Excerpt: BM cells were first treated with ACK lysis buffer (Sigma Aldrich) and lineage-committed cells were removed using a Direct Lineage Cell Depletion Kit (Miltenyi Biotec, #130-110-470, 1:5). Lin^− cells were stained with APC-Cy7-conjugated anti-mouse Sca1 (BD Biosciences, #560654, 1:100), PE-conjugated anti-ckit (BD Biosciences, #553355, 1:100), V450 lineage cocktail (BD Biosciences, #561301, 1:10), and FITC-conjugated anti-CD34 (BD Biosciences, #553733, 1:100) antibodies. Sterile cell sorting was conducted on a BD FACS-Aria cytometer. Purified KSL cells and CD34^−c-kit^+sca-1^+Lin^− (CD34^−KSL) cells were collected into IMDM (Life Technologies) + 10% FBS + 1% penicillin–streptomycin.
CFC assays (colony-forming unit-granulocyte monocyte), burst-forming unit-erythroid, and CFU-GEMM were performed using MethoCult GF M3434 (Stemcell Technologies)[6]. For all in vitro assays, BM CD34^−KSL cells, KSL cells, and Lin^− cells were cultured in TSF media (IMDM, 10% FBS, 1% pen-strep, 20 ng/mL recombinant mouse TPO, 125 ng/mL recombinant mouse SCF, 50 ng/mL recombinant mouse Flt3 ligand). Recombinant mouse SCF, Flt3 ligand, and TPO were purchased from R&D Systems. For competitive repopulation assays, BM cells were isolated from donor 10–12-week-old female CD45.2^+ mice. Recipient 10-week-old female CD45.1^+ B6.SJL mice were irradiated with 950 cGy TBI using a Cs137 irradiator and donor BM cells were administered via tail vein injection along with a competing dose of 1 × 10^5 non-irradiated host BM cells. Multilineage donor hematopoietic cell engraftment was measured in the PB by flow cytometry.

T1 sequence (P43378 whole entry): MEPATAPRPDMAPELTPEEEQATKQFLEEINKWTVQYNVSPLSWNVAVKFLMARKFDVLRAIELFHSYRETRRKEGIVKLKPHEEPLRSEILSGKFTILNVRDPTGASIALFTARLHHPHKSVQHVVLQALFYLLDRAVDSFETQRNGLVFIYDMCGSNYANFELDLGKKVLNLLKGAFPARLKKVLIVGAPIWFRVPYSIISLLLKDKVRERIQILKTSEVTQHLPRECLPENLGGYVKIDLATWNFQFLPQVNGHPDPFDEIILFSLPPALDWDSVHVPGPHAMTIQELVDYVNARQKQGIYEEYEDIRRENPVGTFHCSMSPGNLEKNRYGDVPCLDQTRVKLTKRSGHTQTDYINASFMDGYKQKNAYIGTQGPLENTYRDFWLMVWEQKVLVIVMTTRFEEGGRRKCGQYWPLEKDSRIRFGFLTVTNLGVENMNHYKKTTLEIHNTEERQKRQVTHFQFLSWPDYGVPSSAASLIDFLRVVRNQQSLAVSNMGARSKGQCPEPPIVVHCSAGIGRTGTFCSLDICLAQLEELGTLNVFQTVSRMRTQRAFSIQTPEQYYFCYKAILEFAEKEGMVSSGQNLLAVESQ

Q: What does the source list for O=C(/C=C\Nc1cccc([N+](=O)[O-])c1)c1ccccc1 [DJ001, (Z)-3-((3-nitrophenyl)amino)-1-phenylprop-2-en-1-one]?
A: percentage of apoptotic BM KSL cells vs vehicle (BM KSL cells; 24 h following 500 cGy TBI): significantly decreased the percentage of apoptotic BM KSL cells; Figure 3e: Annexin V/7AAD apoptosis of BM KSL cells (BM KSL cells; 24 h post 500 cGy TBI, individual mice): 14.6 and 11.3 and 12.5 and 12.9 and 14.7 and 10.4 and 14.5 and 15.5 and 16.7; Supplementary Figure 1: PTP MEG2 activity ([1]; 0.27 μg/mL DJ001): 94 (2×) and 103; Supplementary Figure 1: PTP MEG2 activity ([1]; 2.7 μg/mL DJ001): 91 and 71 and 95; Supplementary Figure 3a (center panel): 7 day culture of BM CD34−KSL cells (BM CD34−KSL HSCs; 10 ng/mL): 8.03 and 6.26 and 7.07 and 7.49; Supplementary Figure 3a (left panel): 7 day culture of BM CD34−KSL cells (BM CD34−KSL HSCs; 10 ng/mL): 107000 and 154000 and 141000 and 135000; Supplementary Figure 3a (right panel): 7 day culture of BM CD34−KSL cells (BM CD34−KSL HSCs; 10 ng/mL): 8589 and 9633 and 9964 and 10109; Supplementary Figure 3a (center panel): 7 day culture of BM CD34−KSL cells (BM CD34−KSL HSCs; 100 ng/mL): 15.07 and 8.84 and 9.18 and 11.37; Supplementary Figure 3a (left panel): 7 day culture of BM CD34−KSL cells (BM CD34−KSL HSCs; 100 ng/mL): 127000 and 142000 and 174000 and 219000; Supplementary Figure 3a (right panel): 7 day culture of BM CD34−KSL cells (BM CD34−KSL HSCs; 100 ng/mL): 19062 and 12549 and 15920 and 24836; Supplementary Figure 3a (center panel): 7 day culture of BM CD34−KSL cells (BM CD34−KSL HSCs; 1000 ng/mL): 16.07 and 11.49 and 11 and 12.87; Supplementary Figure 3a (left panel): 7 day culture of BM CD34−KSL cells (BM CD34−KSL HSCs; 1000 ng/mL): 131000 and 209000 and 128000 and 136000; Supplementary Figure 3a (right panel): 7 day culture of BM CD34−KSL cells (BM CD34−KSL HSCs; 1000 ng/mL): 21058 and 24017 and 14076 and 17507; percentages and numbers of BM KSL cells in culture vs control (BM CD34−KSL HSCs; 10–1,000 ng/mL DJ001, 7 days): increased the percentages and numbers of BM KSL cells
